Article PMC9037111, “Structure-based design, synthesis, and biological evaluation of novel piperine–resveratrol hybrids as antiproliferative agents targeting SIRT-2” (RSC Advances, 2021)

Experiments:
Assay in all cases: cells
Parameters in all cases: species or system NCI-60 human tumour cell lines; NCI-60 one-dose screen at 10 uM, percent growth inhibition versus untreated control cells
SNB-19 = conditions: Homo sapiens, SNB-19; growth inhibition, one dose; read-out: Growth% inhibition / 5h
HL-60(TB) = conditions: Homo sapiens, HL-60; growth inhibition, one dose; read-out: Growth% inhibition / 5h
PC-3 = conditions: Homo sapiens, PC-3; growth inhibition, one dose; read-out: Growth% inhibition / 5h
MOLT-4 = conditions: Homo sapiens, MOLT-4; growth inhibition, one dose; read-out: Growth% inhibition / 5h
U251 = conditions: Homo sapiens, U-251; growth inhibition, one dose; read-out: Growth% inhibition / 5h
SN12C = conditions: Homo sapiens, SN12C; growth inhibition, one dose; read-out: Growth% inhibition / 5h
HCC-2998 = conditions: Homo sapiens, HCC 2998; growth inhibition, one dose; read-out: Growth% inhibition / 5h
SR = conditions: Homo sapiens, SR; growth inhibition, one dose; read-out: Growth% inhibition / 5h
T-47D = conditions: Homo sapiens, T47D; growth inhibition, one dose; read-out: Growth% inhibition / 5h
NCI-H226 = conditions: Homo sapiens, NCI-H226; growth inhibition, one dose; read-out: Growth% inhibition / 5h
IGROV1 = conditions: Homo sapiens, IGROV-1; growth inhibition, one dose; read-out: Growth% inhibition / 5h
DU-145 = conditions: Homo sapiens, DU-145; growth inhibition, one dose; read-out: Growth% inhibition / 5h
SF-268 = conditions: Homo sapiens, SF-268; growth inhibition, one dose; read-out: Growth% inhibition / 5h
OVCAR-5 = conditions: Homo sapiens, OVCAR-5; growth inhibition, one dose; read-out: Growth% inhibition / 5h
MALME-3M = conditions: Homo sapiens, Malme-3M; growth inhibition, one dose; read-out: Growth% inhibition / 5h
HOP-92 = conditions: Homo sapiens, HOP-92; growth inhibition, one dose; read-out: Growth% inhibition / 5h
UO-31 = conditions: Homo sapiens, UO-31; growth inhibition, one dose; read-out: Growth% inhibition / 5h
SNB-75 = conditions: Homo sapiens, SNB-75; growth inhibition, one dose; read-out: Growth% inhibition / 5h

`C/C(=N\NC(=O)/C=C/C=C/c1ccc2c(c1)OCO2)c1ccc(Br)cc1` [5h, (2E,4E)-5-(Benzo[d][1,3]dioxol-5-yl)-N′-((E)-1-(4-bromophenyl)ethylidene)penta-2,4-dienehydrazide] gave an inhibition at 10 µM (SNB-19) of 14.5%, an inhibition at 10 µM (HL-60(TB)) of 15.9% and an inhibition at 10 µM (PC-3) of 30.9%. It also gave an inhibition at 10 µM (MOLT-4) of 25.3%, an inhibition at 10 µM (U251) of 16% and an inhibition at 10 µM (SN12C) of 12.4%. The inhibition at 10 µM (HCC-2998) was 10.8%, the inhibition at 10 µM (SR) was 93.3% and the inhibition at 10 µM (T-47D) was 65%. For the same compound, the inhibition at 10 µM (NCI-H226) was 24.1%, the inhibition at 10 µM (IGROV1) was 29.7% and the inhibition at 10 µM (DU-145) was 44%. For the same compound, the inhibition at 10 µM (SF-268) was 32.5%, the inhibition at 10 µM (OVCAR-5) was 10.7% and the inhibition at 10 µM (MALME-3M) was 28.7%. For the same compound, the inhibition at 10 µM (HOP-92) was 11.5%, the inhibition at 10 µM (UO-31) was 44.9% and the inhibition at 10 µM (SNB-75) was 68.1%.
